Reference: US20250262186A1 (SANOFI, priority 2022, published 2025)
Where a name gives a salt, the structure may show the parent alone.

molecular target: T1, ERα (Homo sapiens, UniProt P03372); experiment: Estrogen receptor degradation activity: breast cancer cell ERα in cell western assay in MCF7 cells; type: cell-based; settings: 0.3 μM, 4 hours, relative to fulvestrant 0.1 μM positive control
T1 construct: made using a breast cancer cell ERα in cell western assay; host or cells: MCF7
T1 sequence (P03372 1-595): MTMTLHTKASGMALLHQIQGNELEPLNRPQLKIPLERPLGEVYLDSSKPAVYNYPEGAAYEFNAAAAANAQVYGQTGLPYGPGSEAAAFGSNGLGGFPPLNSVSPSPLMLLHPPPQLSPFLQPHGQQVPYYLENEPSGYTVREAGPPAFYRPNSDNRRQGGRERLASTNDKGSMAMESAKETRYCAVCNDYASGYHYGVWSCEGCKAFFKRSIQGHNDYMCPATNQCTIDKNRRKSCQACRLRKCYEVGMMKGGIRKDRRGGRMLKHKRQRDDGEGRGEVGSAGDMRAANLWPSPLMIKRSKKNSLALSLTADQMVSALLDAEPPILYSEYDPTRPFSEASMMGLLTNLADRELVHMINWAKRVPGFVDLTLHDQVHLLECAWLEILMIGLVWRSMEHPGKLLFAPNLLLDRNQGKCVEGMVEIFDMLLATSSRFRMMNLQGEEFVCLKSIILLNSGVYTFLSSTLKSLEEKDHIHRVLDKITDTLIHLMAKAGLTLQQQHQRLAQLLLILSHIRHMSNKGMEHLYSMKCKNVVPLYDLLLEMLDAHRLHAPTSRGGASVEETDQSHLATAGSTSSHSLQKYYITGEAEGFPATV
Description: Said test involves measuring the in vitro degradation activity of the compounds of the Table 1a.
The measurements of the degradation activities were made using a breast cancer cell ERα in cell western assay as described hereunder.
MCF7 cells (ATCC) were seeded in 384 wells microplate (collagen coated) at a concentration of 10000 cells/30 μL per well in red phenol free MEM alpha medium (invitrogen) containing 5% charcoal dextran striped FBS. The following day, 9 points serial 1:5 dilution of each compound was added to the cells in 2.5 μL at final concentrations ranging from 0.3-0.0000018 μM (in table 2), or 0.1 μM for fulvestrant (using as positive control). At 4 hours post compound addition the cells were fixed by adding 25 μL of formalin (final concentration 5% formalin containing 0.1% triton) for 10 minutes at room temperature and then washed twice with PBS. Then, 50 μL of LI-COR blocking buffer containing 0.1% Triton was added to plate for 30 minutes at room temperature. LI-COR blocking buffer was removed and cells were incubated overnight at cold room with 50 μL anti-ER rabbit monoclonal antibody (Thermo scientific MA1-39540) diluted at 1:1000 in LI-COR blocking buffer containing 0.1% tween-20. Wells which were treated with blocking buffer but no antibody were used as background control. Wells were washed twice with PBS (0.1% tween-20) and incubated at 37° C. for 60 minutes in LI-COR (0.1% tween-20) containing goat anti-rabbit antibody Alexa 488 (1:1000) and Syto-64 a DNA dye (2 μM final concentration). Cells were then washed 3 times in PBS and scanned in ACUMEN explorer (TTP-Labtech). Integrated intensities in the green fluorescence and red fluorescence were measured to determine the levels of ERα and DNA respectively.
The degradation activity with respect to estrogen receptors in this test is given by the concentration which degrades 50% of the estrogen receptor (or IC50) in nM.
The % of ERα levels decrease were determined as follows: % inhibition=100*(1−(sample−fulvestrant: DMSO−fulvestrant)).

In order of falling “% Degradation At 0.3 μM” value:
1. O=C(O)c1ccc2c(c1)CCCC(c1ccccc1Cl)=C2c1cc(O[C@@H]2CCN(CCCF)C2)ccc1F [Compound 26, (R)-8-(2-chlorophenyl)-9-(2-fluoro-5-((1-(3-fluoropropyl)pyrrolidin-3-yl)oxy)phenyl)-6,7-dihydro-5H-benzo[7]annulene-3-carboxylic acid, hydrochloride]  90%
2. Cl.O=C(O)c1ccc2c(c1)CCCC(c1ccc(Cl)cc1Cl)=C2c1cc(O[C@@H]2CCN(CCCF)C2)ccc1F [Compound 27, (R)-8-(2,4-dichlorophenyl)-9-(2-fluoro-5-((1-(3-fluoropropyl)pyrrolidin-3-yl)oxy)phenyl)-6,7-dihydro-5H-benzo[7]annulene-3-carboxylic acid hydrochloride]  89%
3. Cl.O=C(O)c1ccc2c(c1)CCC(c1ccc(Cl)cc1Cl)=C2c1cccc(O[C@@H]2CCN(CCCF)C2)c1 [Compound 40, (R)-6-(2,4-dichlorophenyl)-5-(3-((1-(3-fluoropropyl)pyrrolidin-3-yl)oxy)phenyl)-7,8-dihydronaphthalene-2-carboxylic acid hydrochloride]  88%
4. Cl.O=C(O)c1ccc2c(c1)CCCC(c1ccc(Cl)cc1Cl)=C2c1cccc(O[C@@H]2CCN(CCCF)C2)c1F [Compound 21, (R)-8-(2,4-dichlorophenyl)-9-(2-fluoro-3-((1-(3-fluoropropyl)pyrrolidin-3-yl)oxy)phenyl)-6,7-dihydro-5H-benzo[7]annulene-3-carboxylic acid, hydrochloride]  85%
5. Cc1ccc(O[C@@H]2CCN(CCCF)C2)cc1C1=C(c2ccccc2Cl)CCCc2cc(C(=O)O)ccc21 [Compound 23, (R)-8-(2-chlorophenyl)-9-(5-((1-(3-fluoropropyl)pyrrolidin-3-yl)oxy)-2-methylphenyl)-6,7-dihydro-5H-benzo[7]annulene-3-carboxylic acid]  84%
6. Cl.O=C(O)c1ccc2c(c1)CCCC(c1ccc(Cl)cc1Cl)=C2c1cccc(N[C@@H]2CCN(CCCF)C2)c1 [Compound 33, (R)-8-(2,4-dichlorophenyl)-9-(3-((1-(3-fluoropropyl)pyrrolidin-3-yl)amino)phenyl)-6,7-dihydro-5H-benzo[7]annulene-3-carboxylic acid hydrochloride]  79%
7. FCCCN1CC[C@@H](Oc2cccc(C3=C(c4ccccc4Cl)CCCc4ccccc43)c2)C1 [Compound 39, (R)-3-(3-(8-(2-chlorophenyl)-6,7-dihydro-5H-benzo[7]annulen-9-yl)phenoxy)-1-(3-fluoropropyl)pyrrolidine]  78%
8. Cl.O=C(O)c1ccc2c(c1)CCCC(c1ccccc1)=C2c1cc(O[C@@H]2CCN(CCCF)C2)ccc1F [Compound 25, (R)-9-(2-fluoro-5-((1-(3-fluoropropyl)pyrrolidin-3-yl)oxy)phenyl)-8-phenyl-6,7-dihydro-5H-benzo[7]annulene-3-carboxylic acid, hydrochloride]  77%
9. Oc1ccc2c(c1)SCCC(c1ccc(Cl)cc1Cl)=C2c1cccc(O[C@@H]2CCN(CCCF)C2)c1 [Compound 41, (R)-4-(2,4-dichlorophenyl)-5-(3-((1-(3-fluoropropyl)pyrrolidin-3-yl)oxy)phenyl)-2,3-dihydrobenzo[b]thiepin-8-ol]  75%
10. O=C(O)c1ccc2c(c1)CCCC(c1ccc(Cl)cc1Cl)=C2c1cccc(NC2CN(CCCF)C2)c1 [Compound 32, 8-(2,4-dichlorophenyl)-9-(3-((1-(3-fluoropropyl)azetidin-3-yl)amino)phenyl)-6,7-dihydro-5H-benzo[7]annulene-3-carboxylic acid]  70%
11. FCCCN1CC[C@@H](Oc2cccc(C3=C(c4ccc(Cl)cc4Cl)CCCc4ccccc43)c2)C1 [Compound 38, (R)-3-(3-(8-(2,4-dichlorophenyl)-6,7-dihydro-5H-benzo[7]annulen-9-yl)phenoxy)-1-(3-fluoropropyl)pyrrolidine]  66%
12. Cl.O=C(O)c1ccc2c(c1)OCCC(c1ccc(Cl)cc1Cl)=C2c1cccc(O[C@@H]2CCN(CCCF)C2)c1 [Compound 35, (R)-4-(2,4-dichlorophenyl)-5-(3-((1-(3-fluoropropyl)pyrrolidin-3-yl)oxy)phenyl)-2,3-dihydrobenzo[b]oxepine-8-carboxylic acid hydrochloride]  65%
13. Cc1ccc(O[C@@H]2CCN(CCCF)C2)cc1C1=C(c2ccc(Cl)cc2Cl)CCCc2cc(C(=O)O)ccc21 [Compound 24]  61%
14. O=C(O)c1ccc2c(c1)CCCC(c1ccc(Cl)cc1Cl)=C2c1cccc(CC2CN(CCCF)C2)c1 [Compound 31, 8-(2,4-dichlorophenyl)-9-(3-((1-(3-fluoropropyl)azetidin-3-yl)methyl)phenyl)-6,7-dihydro-5H-benzo[7]annulene-3-carboxylic acid]  58%
15. Cl.O=C(O)c1ccc2c(c1)CCCC(c1ccccc1Cl)=C2c1cccc(OC2CN(CCCF)C2)c1 [Compound 29, 8-(2-chlorophenyl)-9-(3-((1-(3-fluoropropyl)azetidin-3-yl)oxy)phenyl)-6,7-dihydro-5H-benzo[7]annulene-3-carboxylic acid hydrochloride]  57%
16. Cl.O=C(O)c1ccc2c(c1)CCCC(c1ccc(Cl)cc1Cl)=C2c1cccc(OC2CN(CCCF)C2)c1 [Compound 30, 8-(2,4-dichlorophenyl)-9-(3-((1-(3-fluoropropyl)azetidin-3-yl)oxy)phenyl)-6,7-dihydro-5H-benzo[7]annulene-3-carboxylic acid hydrochloride]  55%
